Laboratory results as given in ChEMBL document CHEMBL3853343, “Discovery of novel 2',4'-dimethyl-[4,5'-bithiazol]-2-yl amino derivatives as orally bioavailable TRPV4 antagonists for the treatment of pain: Part 2” (Bioorg Med Chem Lett, 2016).

Key:
[1] = Metabolic stability in guinea pig hepatocytes assessed as parent compound remaining after 1 hr; assay type: ADME, cell-based, Cavia porcellus, Hepatocyte; details: read-out: Stability
Cytochrome P450 2D6 = Cytochrome P450 2D6 (Homo sapiens, UniProt P10635); test: Inhibition of CYP2D6 (unknown origin); assay type: ADME
Cytochrome P450 2D6, sequence (P10635 whole entry): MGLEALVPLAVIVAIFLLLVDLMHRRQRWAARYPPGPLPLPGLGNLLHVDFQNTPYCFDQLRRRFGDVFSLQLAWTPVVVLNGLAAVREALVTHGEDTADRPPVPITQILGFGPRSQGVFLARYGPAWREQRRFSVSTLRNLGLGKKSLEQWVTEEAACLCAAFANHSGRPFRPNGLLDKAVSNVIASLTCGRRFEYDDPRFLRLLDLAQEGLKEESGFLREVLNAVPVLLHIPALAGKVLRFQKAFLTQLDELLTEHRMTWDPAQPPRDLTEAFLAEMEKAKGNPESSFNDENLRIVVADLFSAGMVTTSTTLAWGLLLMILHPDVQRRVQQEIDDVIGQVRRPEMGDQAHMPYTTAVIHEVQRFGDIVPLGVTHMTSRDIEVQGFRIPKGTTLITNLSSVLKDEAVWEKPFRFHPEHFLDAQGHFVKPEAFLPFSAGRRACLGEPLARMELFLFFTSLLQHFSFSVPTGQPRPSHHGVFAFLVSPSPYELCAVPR

[2] = Plasma concentration in Dunkin-Hartley guinea pig complete Freund's adjuvant-induced mechanical hyperalgesia model at 1 mg/kg, po after 5 hrs; assay type: ADME, organism-based, Cavia porcellus
[3] = Stability in human liver microsomes assessed as parent compound remaining after 30 mins in presence or absence of NADPH; assay type: ADME, microsome; details: read-out: Stability
Cavia porcellus [4] = test: Analgesic activity in Dunkin-Hartley guinea pig complete Freund's adjuvant-induced mechanical hyperalgesia model assessed as reversal in paw withdrawal threshold at 1 mg/kg, po after 5 hrs relative to control; assay type: functional
Rattus norvegicus [5] = test: Analgesic activity in rat assessed as reversal of complete Freund's adjuvant-induced mechanical hyperalgesia at 30 mg/kg, po after 1 hr relative to control; assay type: functional
[6] = Volume of distribution at steady state in rat at 0.5 mg/kg, iv; assay type: ADME, organism-based; details: in vivo, read-out: Vdss
Cytochrome P450 2C19 = Cytochrome P450 2C19 (Homo sapiens, UniProt P33261); test: Inhibition of CYP2C19 (unknown origin); assay type: ADME
Cytochrome P450 2C19, sequence (P33261 whole entry): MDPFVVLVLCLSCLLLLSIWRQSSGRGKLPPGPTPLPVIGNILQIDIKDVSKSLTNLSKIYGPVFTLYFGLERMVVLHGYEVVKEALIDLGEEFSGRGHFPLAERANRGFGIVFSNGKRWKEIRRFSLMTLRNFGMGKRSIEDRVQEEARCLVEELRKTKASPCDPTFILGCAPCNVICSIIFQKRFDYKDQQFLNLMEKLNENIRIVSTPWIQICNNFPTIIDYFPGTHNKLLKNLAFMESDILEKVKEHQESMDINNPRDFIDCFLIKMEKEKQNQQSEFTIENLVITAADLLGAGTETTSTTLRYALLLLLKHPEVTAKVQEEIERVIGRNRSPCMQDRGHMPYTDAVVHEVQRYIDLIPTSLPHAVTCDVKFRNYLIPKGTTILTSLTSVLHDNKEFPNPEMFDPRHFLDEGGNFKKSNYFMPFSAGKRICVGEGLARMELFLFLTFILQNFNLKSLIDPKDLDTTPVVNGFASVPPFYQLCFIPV

[7] = Metabolic stability in human hepatocytes assessed as parent compound remaining after 1 hr; assay type: ADME, cell-based, Hepatocyte; details: read-out: Stability
Rattus norvegicus [8] = test: Analgesic activity in rat assessed as reversal of complete Freund's adjuvant-induced mechanical hyperalgesia at 10 mg/kg, po after 3 hrs relative to control; assay type: functional
[9] = AUC in rat at 1 mg/kg, po; assay type: ADME, organism-based; details: in vivo
[10] = Protein binding in guinea pig; assay type: ADME, Cavia porcellus; details: read-out: PB (converted)
[11] = Cmax in rat at 1 mg/kg, po; assay type: ADME, organism-based; parameters: dose 1 mg/kg, route oral; details: in vivo
[12] = Half life in rat at 0.5 mg/kg, iv; assay type: ADME, organism-based; details: in vivo
[13] = Antagonist activity at guinea pig TRPV4 assessed as inhibition of hypotonicity-induced activation; parameters: species or system Cavia porcellus
[14] = Oral bioavailability in guinea pig at 20 mg/kg; assay type: ADME, organism-based, Cavia porcellus; details: in vivo
Cavia porcellus [15] = test: Analgesic activity in Dunkin-Hartley guinea pig complete Freund's adjuvant-induced mechanical hyperalgesia model assessed as reversal in paw withdrawal threshold at 3 mg/kg, po after 5 hrs relative to control; assay type: functional
Cytochrome P450 2C9 = Cytochrome P450 2C9 (Homo sapiens, UniProt P11712); test: Inhibition of CYP2C9 (unknown origin); assay type: ADME
Cytochrome P450 2C9, sequence (P11712 whole entry): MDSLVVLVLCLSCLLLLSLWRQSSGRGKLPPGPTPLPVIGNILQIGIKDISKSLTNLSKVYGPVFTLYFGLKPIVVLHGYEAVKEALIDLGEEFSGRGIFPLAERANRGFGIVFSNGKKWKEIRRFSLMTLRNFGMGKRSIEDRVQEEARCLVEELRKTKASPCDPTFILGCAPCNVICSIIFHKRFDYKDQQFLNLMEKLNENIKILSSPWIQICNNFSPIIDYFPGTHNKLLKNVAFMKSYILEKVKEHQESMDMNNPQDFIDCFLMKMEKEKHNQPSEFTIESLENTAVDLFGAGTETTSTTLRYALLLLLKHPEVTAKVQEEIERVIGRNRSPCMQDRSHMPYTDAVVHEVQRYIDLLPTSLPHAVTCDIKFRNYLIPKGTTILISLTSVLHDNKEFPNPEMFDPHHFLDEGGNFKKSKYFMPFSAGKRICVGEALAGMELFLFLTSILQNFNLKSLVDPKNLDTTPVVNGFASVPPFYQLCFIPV

[16] = Plasma concentration in Dunkin-Hartley guinea pig complete Freund's adjuvant-induced mechanical hyperalgesia model at 3 mg/kg, po after 5 hrs; assay type: ADME, organism-based, Cavia porcellus
[17] = Protein binding in human; assay type: ADME; details: read-out: PB
[18] = Half life in guinea pig at 1 mg/kg, iv; assay type: ADME, organism-based, Cavia porcellus; details: in vivo
[19] = Antagonist activity at guinea pig TRPV4 assessed as inhibition of 4alpha-PDD-induced activation; parameters: species or system Cavia porcellus
[20] = Total clearance in guinea pig at 1 mg/kg, iv; assay type: ADME, organism-based, Cavia porcellus; details: in vivo
Cavia porcellus [21] = test: Analgesic activity in Dunkin-Hartley guinea pig complete Freund's adjuvant-induced mechanical hyperalgesia model assessed as reversal in paw withdrawal threshold at 10 mg/kg, po after 5 hrs relative to control; assay type: functional
[22] = Total clearance in rat at 0.5 mg/kg, iv; assay type: ADME, organism-based; details: in vivo
[23] = AUC in guinea pig at 20 mg/kg, po; assay type: ADME, organism-based, Cavia porcellus; details: in vivo
[24] = Tmax in guinea pig at 20 mg/kg, po; assay type: ADME, organism-based, Cavia porcellus; details: in vivo
[25] = Protein binding in rat; assay type: ADME; details: read-out: PB
Rattus norvegicus [26] = test: Analgesic activity in rat assessed as reversal of complete Freund's adjuvant-induced mechanical hyperalgesia at 30 mg/kg, po after 3 hrs relative to control; assay type: functional
[27] = Stability in rat liver microsomes assessed as parent compound remaining after 30 mins in presence or absence of NADPH; assay type: ADME, microsome; details: read-out: Stability
[28] = Cmax in guinea pig at 20 mg/kg, po measured 12 hrs post dose; assay type: ADME, organism-based, Cavia porcellus; parameters: dose 20 mg/kg, route oral; details: in vivo
Rattus norvegicus [29] = test: Analgesic activity in rat assessed as reversal of complete Freund's adjuvant-induced mechanical hyperalgesia at 30 mg/kg, po after 5 hrs relative to control; assay type: functional
Rattus norvegicus [30] = test: Analgesic activity in rat assessed as reversal of complete Freund's adjuvant-induced mechanical hyperalgesia at 10 mg/kg, po after 5 hrs relative to control; assay type: functional
Cytochrome P450 1A2 = molecular target: T1, Cytochrome P450 1A2 (Homo sapiens, UniProt P05177); test: Inhibition of CYP1A2 (unknown origin); assay type: ADME
T1 sequence (P05177 whole entry): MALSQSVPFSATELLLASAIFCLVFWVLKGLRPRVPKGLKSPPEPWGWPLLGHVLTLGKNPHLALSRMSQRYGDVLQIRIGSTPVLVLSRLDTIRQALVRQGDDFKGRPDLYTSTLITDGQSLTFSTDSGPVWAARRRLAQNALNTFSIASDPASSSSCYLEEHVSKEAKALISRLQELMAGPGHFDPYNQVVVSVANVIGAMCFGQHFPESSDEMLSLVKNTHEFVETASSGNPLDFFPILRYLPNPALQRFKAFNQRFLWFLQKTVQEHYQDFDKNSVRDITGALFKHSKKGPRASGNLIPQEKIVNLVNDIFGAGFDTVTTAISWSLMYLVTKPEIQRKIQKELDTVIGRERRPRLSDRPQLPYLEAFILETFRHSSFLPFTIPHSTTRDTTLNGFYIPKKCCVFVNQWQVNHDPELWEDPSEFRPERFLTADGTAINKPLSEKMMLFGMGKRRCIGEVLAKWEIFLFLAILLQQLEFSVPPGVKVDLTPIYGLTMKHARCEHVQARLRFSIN

Cytochrome P450 3A4 = Cytochrome P450 3A4 (Homo sapiens, UniProt P08684); test: Inhibition of CYP3A4 (unknown origin); assay type: ADME
Cytochrome P450 3A4, sequence (P08684 whole entry): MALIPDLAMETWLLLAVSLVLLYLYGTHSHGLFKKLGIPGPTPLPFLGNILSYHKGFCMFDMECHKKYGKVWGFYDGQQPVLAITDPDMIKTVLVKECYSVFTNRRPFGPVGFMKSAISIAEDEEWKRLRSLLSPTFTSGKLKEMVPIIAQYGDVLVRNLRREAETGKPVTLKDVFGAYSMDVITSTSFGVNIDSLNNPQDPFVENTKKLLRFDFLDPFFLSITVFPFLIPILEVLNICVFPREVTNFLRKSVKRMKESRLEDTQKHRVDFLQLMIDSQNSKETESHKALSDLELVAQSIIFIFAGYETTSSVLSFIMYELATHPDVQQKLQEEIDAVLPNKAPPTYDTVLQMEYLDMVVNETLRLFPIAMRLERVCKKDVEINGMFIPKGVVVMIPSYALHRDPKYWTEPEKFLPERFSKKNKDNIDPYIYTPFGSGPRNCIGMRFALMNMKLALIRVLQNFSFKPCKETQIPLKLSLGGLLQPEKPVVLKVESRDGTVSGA

[31] = Tmax in rat at 1 mg/kg, po; assay type: ADME, organism-based; details: in vivo
[32] = molecular target: T2, Transient receptor potential cation channel subfamily V member 4 (Rattus norvegicus, UniProt Q9ERZ8); test: Antagonist activity at rat TRPV4 assessed as inhibition of hypotonicity-induced activation
T2 sequence (Q9ERZ8 whole entry): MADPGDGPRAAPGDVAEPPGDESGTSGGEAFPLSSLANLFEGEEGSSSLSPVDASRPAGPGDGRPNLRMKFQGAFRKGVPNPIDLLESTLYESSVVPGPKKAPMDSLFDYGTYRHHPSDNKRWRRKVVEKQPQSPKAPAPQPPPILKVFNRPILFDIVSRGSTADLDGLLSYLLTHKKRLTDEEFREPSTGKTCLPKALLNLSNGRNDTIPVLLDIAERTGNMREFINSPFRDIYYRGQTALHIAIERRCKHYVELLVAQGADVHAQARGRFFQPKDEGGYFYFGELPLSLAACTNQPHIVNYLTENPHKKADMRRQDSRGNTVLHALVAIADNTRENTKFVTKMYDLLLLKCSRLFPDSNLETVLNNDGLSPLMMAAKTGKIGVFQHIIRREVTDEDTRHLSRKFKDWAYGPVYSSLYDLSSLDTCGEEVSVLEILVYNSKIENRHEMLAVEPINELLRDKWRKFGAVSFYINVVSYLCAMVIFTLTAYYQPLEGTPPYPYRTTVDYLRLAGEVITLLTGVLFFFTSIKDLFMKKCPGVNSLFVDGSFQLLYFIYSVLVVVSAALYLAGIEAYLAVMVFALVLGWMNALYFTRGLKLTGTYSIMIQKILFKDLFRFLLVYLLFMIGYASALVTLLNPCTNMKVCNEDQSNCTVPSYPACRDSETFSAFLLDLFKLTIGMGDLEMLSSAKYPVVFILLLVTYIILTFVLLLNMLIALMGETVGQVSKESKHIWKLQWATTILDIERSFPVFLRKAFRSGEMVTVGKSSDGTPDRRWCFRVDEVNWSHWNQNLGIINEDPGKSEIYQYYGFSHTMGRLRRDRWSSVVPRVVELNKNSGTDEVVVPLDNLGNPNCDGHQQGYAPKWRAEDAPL

Rattus norvegicus [33] = test: Analgesic activity in rat assessed as reversal of complete Freund's adjuvant-induced mechanical hyperalgesia at 10 mg/kg, po after 1 hr relative to control; assay type: functional
[34] = Volume of distribution at steady state in guinea pig at 1 mg/kg, iv; assay type: ADME, organism-based, Cavia porcellus; details: in vivo, read-out: Vdss
[35] = molecular target: T2, Transient receptor potential cation channel subfamily V member 4; test: Antagonist activity at rat TRPV4 assessed as inhibition of 4alpha-PDD-induced activation
[36] = Plasma concentration in Dunkin-Hartley guinea pig complete Freund's adjuvant-induced mechanical hyperalgesia model at 10 mg/kg, po after 5 hrs; assay type: ADME, organism-based, Cavia porcellus
[37] = Oral bioavailability in rat at 1 mg/kg; assay type: ADME, organism-based; details: in vivo
Salmonella typhimurium = test: Genotoxicity in Salmonella typhimurium by Ames test; assay type: toxicity, organism-based; details: salmonella enterica subsp. enterica serovar typhimurium
[38] = Metabolic stability in rat hepatocytes assessed as parent compound remaining after 1 hr; assay type: ADME, cell-based, Hepatocyte; details: read-out: Stability

remaining at 1 h [1]: 73%
INH (Cytochrome P450 2D6): > 20 µM
concentration at 5 h [2]: 21.2 ng/mL
remaining at 0.5 h [3]: 94.8%
Vd [6]: 4.6 L/kg
INH (Cytochrome P450 2C19): > 20 µM
remaining at 1 h [7]: 91%
AUC [9]: 900 ng·h/mL
fraction unbound [10]: 0.003
Cmax [11]: 55.2 ng/mL
half-life [12]: 8.1 h
IC50 [13]: 1.2 nM
bioavailability [14]: 44%
INH (Cytochrome P450 2C9): > 20 µM
concentration at 5 h [16]: 69.4 ng/mL
fraction unbound [17]: < 0.001
half-life [18]: 4.2 h
IC50 [19]: 0.9 nM
clearance [20]: 31.1 mL/min/kg
clearance [22]: 7.22 mL/min/kg
AUC [23]: 4720 ng·h/mL
Tmax [24]: 12 h
fraction unbound [25]: < 0.001
remaining at 0.5 h [27]: 69.2%
Cmax [28]: 256 ng/mL
INH (Cytochrome P450 1A2): > 20 µM
INH (Cytochrome P450 3A4): > 20 µM
Tmax [31]: 4 h
IC50 [32]: 2.1 nM
Vd [34]: 11 L/kg
IC50 [35]: 8.6 nM
concentration at 5 h [36]: 209 ng/mL
bioavailability [37]: 37.9%
remaining at 1 h [38]: 105%
Structure (SMILES): Cc1nc(C)c(-c2csc(Nc3ccc(C(=O)N4C5CCC4CN(c4ncc(C(F)(F)F)cn4)C5)cn3)n2)s1
Activity (Cavia porcellus [4]): 15.6%
Activity (Rattus norvegicus [5]): 22%
Activity (Rattus norvegicus [8]): 21.3%
Activity (Cavia porcellus [15]): 30.6%
Activity (Cavia porcellus [21]): 43.4%
Activity (Rattus norvegicus [26]): 29.7%
Activity (Rattus norvegicus [29]): 23.5%
Activity (Rattus norvegicus [30]): 11%
Activity (Rattus norvegicus [33]): 15.5%
Activity (Salmonella typhimurium): Non-Toxic
